Tested on: HPB-ALL cells
Assay: Inhibition of CD95-independent apoptosis induced by anti-CXCR4 antibody (12G5) in HPB-ALL cells
Format: cell-based
Details: HPB-ALL cells incubated with 250 nM SDF-1α at 37° C. for 30 minutes, then induction with anti-CXCR4 antibody 12G5
Method: 1×10^5 HPB-ALL cells are incubated with 5 μg/ml mouse anti-CD4 antibody (HP2/6) and mouse anti CXCR4 antibody (12G5), respectively, at 37° C. for 15 minutes. Then, the bound antibodies are reacted with sheep anti-mouse antibodies (100 μg/ml, Boehringer). Apoptosis detection is carried out in which an FSC/SSC analysis is run in an FACScan cytometer at various times (cf. FIG. 1). HPB-ALL cells are incubated with 250 nM SDF-1α at 37° C. for 30 minutes. The cells are then subjected to an apoptosis induction using the mouse anti-CXCR4 antibody (12G5), as described above under item I. (a).

SDF-1α
Prevention of induction of CD95-independent apoptosis: can be prevented
